≈ marks a conversion by molar mass, not a printed value.
Key:
[1] = Intrinsic clearance in human liver microsomes assessed per mg protein in presence of NADPH by UPLC analysis; type: ADME, Microsome; conditions: read-out: CLH
[2] = target: T1, Poly [ADP-ribose] polymerase 1 (Homo sapiens, UniProt P09874); experiment: (§1) Inhibition of recombinant human full-length Myc/His-tagged Parp-1 expressed in baculovirus infected Sf21 insect cells assessed as reduction in auto-PARsylation using activated DNA as substrate incubated for 150 mins in presence of NAD and bio-NAD as co-substrate by TR-FRET assay
[3] = Intrinsic clearance in mouse liver microsomes assessed per mg protein in presence of NADPH by UPLC analysis; type: ADME, Microsome; conditions: read-out: CLH
[4] = target: T2, Poly [ADP-ribose] polymerase tankyrase-1 (Homo sapiens, UniProt O95271); design: species or system Sf9
T2 sequence (O95271 whole entry): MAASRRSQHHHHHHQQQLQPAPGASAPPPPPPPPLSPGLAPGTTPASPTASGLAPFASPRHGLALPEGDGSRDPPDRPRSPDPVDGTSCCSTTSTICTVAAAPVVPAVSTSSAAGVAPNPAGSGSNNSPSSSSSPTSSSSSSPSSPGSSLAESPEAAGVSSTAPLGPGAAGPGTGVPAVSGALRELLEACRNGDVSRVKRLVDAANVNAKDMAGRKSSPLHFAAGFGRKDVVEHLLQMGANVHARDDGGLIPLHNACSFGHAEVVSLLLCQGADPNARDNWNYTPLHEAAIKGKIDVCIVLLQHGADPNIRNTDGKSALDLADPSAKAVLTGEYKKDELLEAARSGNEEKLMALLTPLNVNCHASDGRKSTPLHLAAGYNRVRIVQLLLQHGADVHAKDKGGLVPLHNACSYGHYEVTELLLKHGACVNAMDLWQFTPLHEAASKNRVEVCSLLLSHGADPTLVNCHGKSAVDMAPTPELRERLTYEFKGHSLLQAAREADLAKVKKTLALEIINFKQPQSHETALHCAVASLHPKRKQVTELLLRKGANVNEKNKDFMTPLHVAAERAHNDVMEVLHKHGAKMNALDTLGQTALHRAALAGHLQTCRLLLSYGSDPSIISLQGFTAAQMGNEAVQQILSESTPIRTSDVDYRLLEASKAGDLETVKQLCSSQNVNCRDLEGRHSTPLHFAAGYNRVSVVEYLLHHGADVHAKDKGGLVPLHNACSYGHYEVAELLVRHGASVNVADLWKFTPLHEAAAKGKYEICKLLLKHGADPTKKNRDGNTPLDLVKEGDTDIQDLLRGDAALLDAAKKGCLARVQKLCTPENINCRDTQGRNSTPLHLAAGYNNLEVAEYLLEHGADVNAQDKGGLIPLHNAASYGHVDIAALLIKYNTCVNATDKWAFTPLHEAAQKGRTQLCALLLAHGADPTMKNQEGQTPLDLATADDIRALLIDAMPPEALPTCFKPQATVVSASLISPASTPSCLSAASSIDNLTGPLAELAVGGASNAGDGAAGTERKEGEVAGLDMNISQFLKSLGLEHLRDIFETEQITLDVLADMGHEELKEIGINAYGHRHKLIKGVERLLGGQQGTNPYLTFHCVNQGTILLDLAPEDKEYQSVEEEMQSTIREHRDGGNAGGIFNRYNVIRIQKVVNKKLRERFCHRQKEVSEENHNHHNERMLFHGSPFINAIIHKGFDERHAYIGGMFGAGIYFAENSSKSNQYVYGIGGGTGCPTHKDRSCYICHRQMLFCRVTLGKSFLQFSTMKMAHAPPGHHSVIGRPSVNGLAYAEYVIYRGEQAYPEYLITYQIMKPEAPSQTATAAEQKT

[5] = Thermodynamic solubility in phosphate buffer at pH 7.4 at 2 mg incubated under shaking condition for 6 hrs followed by rechecking and readjusting pH to 7.4 and further incubated for 18 hrs by HPLC/UV detection method; type: physicochemical; conditions: read-out: Therm_solubility
[6] = target: T3, Poly [ADP-ribose] polymerase tankyrase-2 (Homo sapiens, UniProt Q9H2K2); experiment: biochemical
T3 sequence (Q9H2K2 whole entry): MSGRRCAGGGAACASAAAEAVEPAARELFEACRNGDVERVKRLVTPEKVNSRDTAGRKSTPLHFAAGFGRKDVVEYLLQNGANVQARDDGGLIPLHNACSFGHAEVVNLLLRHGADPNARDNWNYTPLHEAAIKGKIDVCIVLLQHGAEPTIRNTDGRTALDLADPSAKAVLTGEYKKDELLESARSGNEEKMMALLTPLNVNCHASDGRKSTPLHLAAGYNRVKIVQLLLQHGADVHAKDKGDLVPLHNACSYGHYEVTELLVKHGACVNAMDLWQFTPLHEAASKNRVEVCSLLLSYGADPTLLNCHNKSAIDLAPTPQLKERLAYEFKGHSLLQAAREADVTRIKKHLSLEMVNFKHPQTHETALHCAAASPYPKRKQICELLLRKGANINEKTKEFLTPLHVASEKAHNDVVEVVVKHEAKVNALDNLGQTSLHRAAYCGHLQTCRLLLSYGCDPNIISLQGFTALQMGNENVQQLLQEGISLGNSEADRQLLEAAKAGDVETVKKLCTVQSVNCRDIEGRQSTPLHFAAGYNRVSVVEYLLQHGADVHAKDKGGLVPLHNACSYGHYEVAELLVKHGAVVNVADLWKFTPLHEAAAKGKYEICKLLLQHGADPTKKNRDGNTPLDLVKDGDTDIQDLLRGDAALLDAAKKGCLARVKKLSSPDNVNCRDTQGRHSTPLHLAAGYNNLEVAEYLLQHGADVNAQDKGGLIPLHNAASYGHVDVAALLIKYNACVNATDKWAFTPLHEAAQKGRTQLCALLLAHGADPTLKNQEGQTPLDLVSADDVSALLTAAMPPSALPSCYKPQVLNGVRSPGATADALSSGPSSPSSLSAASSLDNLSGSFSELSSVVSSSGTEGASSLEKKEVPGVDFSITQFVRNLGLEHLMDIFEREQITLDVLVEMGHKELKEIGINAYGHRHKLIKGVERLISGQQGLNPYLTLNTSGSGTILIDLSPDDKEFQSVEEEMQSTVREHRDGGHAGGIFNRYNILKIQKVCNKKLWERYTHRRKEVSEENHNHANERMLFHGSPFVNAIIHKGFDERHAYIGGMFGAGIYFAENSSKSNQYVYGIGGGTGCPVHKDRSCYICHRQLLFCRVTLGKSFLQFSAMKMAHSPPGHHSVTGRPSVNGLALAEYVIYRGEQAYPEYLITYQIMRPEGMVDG
Description: Inhibition of GST tagged-TEV cleavage site-fused human recombinant TNKS2 (873 to 1166 residues) expressed in baculovirus infected sf9 cells assessed as reduction in auto-PARsylation incubated for 60 mins in presence of bio-NAD as co-substrate by ELISA

Tankyrase 1/2 = target: T4, Tankyrase 1/2 (Homo sapiens, UniProt Q9H2K2+O95271)
T4 sequence (Q9H2K2 whole entry): T3 sequence (Q9H2K2 whole entry)
T4 sequence (O95271 whole entry): T2 sequence (O95271 whole entry)
Description: Inhibition of tankyrase 1/2 in human DLD1 cells assessed as increase in axin2 accumulation incubated for 24 hrs by luminex based bead assay

[7] = target: T1, Poly [ADP-ribose] polymerase 1; experiment: as §1, with “auto-PARsylation at 10 uM” for “auto-PARsylation”, “assay relative to control” for “assay”
[8] = target: T3, Poly [ADP-ribose] polymerase tankyrase-2; experiment: biochemical; remark: listed apart in the source
Description: Inhibition of GST tagged-TEV cleavage site-fused human recombinant TNKS2 (873 to 1166 residues) expressed in baculovirus infected Sf9 cells assessed as reduction in auto-PARsylation incubated for 90 mins in presence of bio-NAD as co-substrate by TR-FRET assay

[9] = target: T2, Poly [ADP-ribose] polymerase tankyrase-1; experiment: biochemical
Description: Inhibition of GST tagged-TEV cleavage site-fused human recombinant TNKS1 (1023 to 1327 residues) expressed in baculovirus infected Sf9 cells assessed as reduction in auto-PARsylation incubated for 90 mins in presence of bio-NAD as co-substrate by TR-FRET assay

T1 sequence (P09874 whole entry): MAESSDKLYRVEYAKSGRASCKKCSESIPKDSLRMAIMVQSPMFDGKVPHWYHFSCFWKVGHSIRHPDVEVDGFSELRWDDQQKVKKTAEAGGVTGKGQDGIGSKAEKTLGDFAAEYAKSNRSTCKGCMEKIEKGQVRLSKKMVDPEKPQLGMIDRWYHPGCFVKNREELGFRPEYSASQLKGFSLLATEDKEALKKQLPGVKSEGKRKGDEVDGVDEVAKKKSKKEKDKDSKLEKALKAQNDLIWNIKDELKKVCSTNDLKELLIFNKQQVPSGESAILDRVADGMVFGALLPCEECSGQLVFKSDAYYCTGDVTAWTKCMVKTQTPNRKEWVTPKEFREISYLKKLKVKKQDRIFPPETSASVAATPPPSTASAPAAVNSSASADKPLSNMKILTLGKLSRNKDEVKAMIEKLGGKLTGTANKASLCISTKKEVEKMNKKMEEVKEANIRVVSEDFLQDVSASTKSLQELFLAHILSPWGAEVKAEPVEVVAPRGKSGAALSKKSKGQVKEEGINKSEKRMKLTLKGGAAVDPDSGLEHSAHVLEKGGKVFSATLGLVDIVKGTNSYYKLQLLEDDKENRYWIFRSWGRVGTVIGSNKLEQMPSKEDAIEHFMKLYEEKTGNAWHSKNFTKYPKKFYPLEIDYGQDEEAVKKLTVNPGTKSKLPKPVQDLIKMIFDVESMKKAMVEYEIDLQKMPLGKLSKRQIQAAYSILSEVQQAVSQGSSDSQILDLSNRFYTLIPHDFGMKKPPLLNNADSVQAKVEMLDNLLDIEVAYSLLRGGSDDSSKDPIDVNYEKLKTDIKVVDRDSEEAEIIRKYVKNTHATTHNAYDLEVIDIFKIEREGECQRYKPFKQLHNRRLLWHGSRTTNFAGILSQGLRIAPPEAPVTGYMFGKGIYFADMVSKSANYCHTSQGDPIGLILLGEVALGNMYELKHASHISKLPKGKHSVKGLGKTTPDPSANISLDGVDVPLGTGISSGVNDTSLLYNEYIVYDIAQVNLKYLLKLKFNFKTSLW

Row | SMILES | microsomal CLint [1] [µL/min/mg] | IC50 [2] [nM] | microsomal CLint [3] [µL/min/mg] | IC50 [4] [nM] | solubility thermodynamic at 24 h [5] [µg/mL] | IC50 [6] [nM] | EC50 (Tankyrase 1/2) [nM] | inhibition [7] [%] | IC50 [8] [nM] | IC50 [9] [nM]
1 | COc1ccc(-c2nc3ccccc3c(=O)[nH]2)cc1 | 217 | – | 630 | – | 4 (≈ 15.9 µM) | – | – | – | – | –
2 | CC(C)(O)c1ccc(-c2nc3c(F)ccc(F)c3c(=O)[nH]2)cc1 | < 10 | 1300 | < 10 | 26 | 5 (≈ 15.8 µM) | – | – | – | – | –
3 | CC(C)(O)c1ccc(-c2nc3ccc(Cl)cc3c(=O)[nH]2)cc1 | – | 1400 | – | 23 | – | – | – | – | – | –
4 | Cl.O=c1[nH]c(-c2ccc(C3CCNCC3)cc2)nc2c(F)cc(F)cc12 | < 10 | – | < 10 | 15 | 57 | – | – | – | – | –
5 | CC(C)(OCCO)c1ccc(-c2nc3ccc(F)cc3c(=O)[nH]2)cc1 | < 10 | 2300 | 32 | 10 | 23 (≈ 67.2 µM) | – | – | – | – | –
6 | CN1CCC(c2ccc(-c3nc4c(F)cc(F)cc4c(=O)[nH]3)cc2)CC1.O=C(O)C(F)(F)F | < 10 | 3700 | 39 | 31 | 65 | 31 | 3900 | – | – | –
7 | CC(C)(C)c1ccc(-c2nc3ccccc3c(=O)[nH]2)cc1 | 19 | > 10000 | < 10 | 7.9 | < 1 | 8.7 | 1500 | 35 | – | –
8 | CC(C)(O)c1ccc(-c2nc3ccc(F)cc3c(=O)[nH]2)nc1 | 15 | 2500 | < 10 | 1000 | – | – | – | – | – | –
9 | COCCOC(C)(C)c1ccc(-c2nc3ccc(F)cc3c(=O)[nH]2)cc1 | 41 | 5700 | 126 | 24 | 6 (≈ 16.8 µM) | – | – | – | – | –
10 | O=c1[nH]c(-c2ccc3c(c2)OCO3)nc2ccccc12 | 83 | 1700 | 346 | – | 1 (≈ 3.76 µM) | – | > 30000 | – | 620 | 430
11 | CC(C)(O)c1ccc(-c2nc3cccc(Cl)c3c(=O)[nH]2)cc1 | – | 4300 | – | 35 | – | – | – | – | – | –
12 | CC(C)(C)c1ccc(-c2nc3ccc(F)cc3c(=O)[nH]2)cc1 | 70 | 3900 | > 1000 | 3.3 | < 1 | – | – | – | – | –

Other lines, results leading:

Row | microsomal CLint [1] [µL/min/mg] | IC50 [2] [nM] | microsomal CLint [3] [µL/min/mg] | IC50 [4] [nM] | solubility thermodynamic at 24 h [5] [µg/mL] | IC50 [6] [nM] | EC50 (Tankyrase 1/2) [nM] | inhibition [7] [%] | IC50 [8] [nM] | IC50 [9] [nM] | SMILES
13 | 37 | 790 | 180 | 1.6 | – | – | – | – | – | – | Cc1cc(F)cc2c(=O)[nH]c(-c3ccc(C(C)(C)OCCO)cc3)nc12
14 | < 10 | 830 | 11 | 17 | 20 (≈ 67 µM) | – | – | – | – | – | CC(C)(O)c1ccc(-c2nc3cccc(F)c3c(=O)[nH]2)cc1
15 | < 10 | 79 | 81 | 1.2 | 4 (≈ 13.6 µM) | – | – | – | – | – | Cc1cccc2c(=O)[nH]c(-c3ccc(C(C)(C)O)cc3)nc12
16 | 12 | 630 | 45 | 35 | 153 (≈ 493 µM) | – | – | – | – | – | COc1cccc2c(=O)[nH]c(-c3ccc(C(C)(C)O)cc3)nc12
17 | < 10 | 370 | 44 | 12 | 6 (≈ 17.7 µM) | – | – | – | – | – | CN1CCN(c2ccc(-c3nc4ccc(F)cc4c(=O)[nH]3)cc2)CC1
18 | < 10 | 349 | 25 | 12.5 | 29 (≈ 97.2 µM) | – | – | – | – | – | CC(C)(O)c1ccc(-c2nc3ccc(F)cc3c(=O)[nH]2)cc1
19 | < 10 | 512 | 23 | 7 | 25 (≈ 79 µM) | – | – | – | – | – | CC(C)(O)c1ccc(-c2nc3ccc(F)c(F)c3c(=O)[nH]2)cc1
20 | < 10 | 620 | 422 | 2.2 | 5 (≈ 14.2 µM) | 2.2 | 50 | – | – | – | Cc1cc(F)cc2c(=O)[nH]c(-c3ccc(C4CCN(C)CC4)cc3)nc12
21 | < 10 | 1100 | 26 | 14 | 15 (≈ 50.3 µM) | – | – | – | – | – | CC(C)(O)c1ccc(-c2nc3c(F)cccc3c(=O)[nH]2)cc1
22 | 14 | 120 | 138 | 1.5 | 4 (≈ 11.4 µM) | – | – | – | – | – | Cc1cc(F)cc2c(=O)[nH]c(-c3ccc(N4CCN(C)CC4)cc3)nc12
23 | 23 | 410 | 49 | 11 | – | – | – | – | – | – | CC(C)(O)c1ccc(-c2nc3c(Cl)cccc3c(=O)[nH]2)cc1
24 | < 10 | 60 | 180 | 0.8 | 1 (≈ 3.2 µM) | – | – | – | – | – | Cc1cc(F)cc2c(=O)[nH]c(-c3ccc(C(C)(C)O)cc3)nc12
25 | 15 | 910 | 46 | 15 | 38 (≈ 136 µM) | 13 | 1300 | – | – | – | CC(C)(O)c1ccc(-c2nc3ccccc3c(=O)[nH]2)cc1

From ChEMBL document CHEMBL4321794, “Discovery and Optimization of 2-Arylquinazolin-4-ones into a Potent and Selective Tankyrase Inhibitor Modulating Wnt Pathway Activity” (J Med Chem, 2019)
